Assay results: the supplement of paper PMC10307832

Experiments:
Assay in all cases: relative viability (nuclei count vs DMSO), 5 days (fraction); higher = more cells survive
Bleomycin + Dasatinib = compound: CC1=C(N=C(N=C1N)[C@H](CC(=O)N)NC[C@@H](C(=O)N)N)C(=O)N[C@@H]([C@H](C2=CN=CN2)OC3C(C(C(C(O3)CO)O)O)OC4C(C(C(C(O4)CO)O)OC(=O)N)O)C(=O)N[C@H](C)[C@H]([C@H](C)C(=O)N[C@@H]([C@@H](C)O)C(=O)NCCC5=NC(=CS5)C6=NC(=CS6)C(=O)NCCC[S+](C)C)O [Bleomycin] + Cc1nc(Nc2ncc(C(=O)Nc3c(C)cccc3Cl)s2)cc(N2CCN(CCO)CC2)n1 [Dasatinib] (partner 0.075 µM); conditions: main component drawn
Method in brief: (§1)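 For relative viability, nuclei counts in treated wells were divided by those in vehicle wells. Lung cancer cell lines had been pin-tool dosed in 1536-well plates the day after seeding and cultured for 5 days, then fixed and stained in one step (final 0.05% Triton X-100, 1% formaldehyde, 1 ug/ml Hoechst) and imaged at 4×. Doses were one drug alone or a fixed anchor-drug dose plus five library-drug doses (not always all listed) in √10 steps, and values are duplicate-plate medians.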

Bleomycin + Linsitinib = compound: CC1=C(N=C(N=C1N)[C@H](CC(=O)N)NC[C@@H](C(=O)N)N)C(=O)N[C@@H]([C@H](C2=CN=CN2)OC3C(C(C(C(O3)CO)O)O)OC4C(C(C(C(O4)CO)O)OC(=O)N)O)C(=O)N[C@H](C)[C@H]([C@H](C)C(=O)N[C@@H]([C@@H](C)O)C(=O)NCCC5=NC(=CS5)C6=NC(=CS6)C(=O)NCCC[S+](C)C)O [Bleomycin] + C[C@]1(O)C[C@@H](c2nc(-c3ccc4ccc(-c5ccccc5)nc4c3)c3c(N)nccn32)C1 [Linsitinib] (partner 1 µM); conditions: main component drawn
Method in brief: as §1

Etoposide + Lapatinib = compound: COc1cc([C@@H]2c3cc4c(cc3[C@@H](O[C@@H]3O[C@@H]5CO[C@@H](C)O[C@H]5[C@H](O)[C@H]3O)[C@H]3COC(=O)[C@H]23)OCO4)cc(OC)c1O [Etoposide] + CS(=O)(=O)CCNCc1ccc(-c2ccc3ncnc(Nc4ccc(OCc5cccc(F)c5)c(Cl)c4)c3c2)o1 [Lapatinib] (partner 2 µM)
Method in brief: as §1

Bleomycin + Pemetrexed = compound: CC1=C(N=C(N=C1N)[C@H](CC(=O)N)NC[C@@H](C(=O)N)N)C(=O)N[C@@H]([C@H](C2=CN=CN2)OC3C(C(C(C(O3)CO)O)O)OC4C(C(C(C(O4)CO)O)OC(=O)N)O)C(=O)N[C@H](C)[C@H]([C@H](C)C(=O)N[C@@H]([C@@H](C)O)C(=O)NCCC5=NC(=CS5)C6=NC(=CS6)C(=O)NCCC[S+](C)C)O [Bleomycin] + Nc1nc2[nH]cc(CCc3ccc(C(=O)N[C@@H](CCC(=O)O)C(=O)O)cc3)c2c(=O)[nH]1 [Pemetrexed] (partner 0.2 µM); conditions: main component drawn
Method in brief: as §1

Row | Cell Line | relative viability (Bleomycin + Dasatinib; first compound 0.01 µM) | relative viability (Bleomycin + Dasatinib; first compound 0.03162 µM) | relative viability (Bleomycin + Dasatinib; first compound 0.1 µM) | relative viability (Bleomycin + Dasatinib; first compound 0.3162 µM) | relative viability (Bleomycin + Dasatinib; first compound 1 µM) | relative viability (Bleomycin + Linsitinib; first compound 0.01 µM) | relative viability (Bleomycin + Linsitinib; first compound 0.03162 µM) | relative viability (Bleomycin + Linsitinib; first compound 0.1 µM) | relative viability (Bleomycin + Linsitinib; first compound 0.3162 µM) | relative viability (Bleomycin + Linsitinib; first compound 1 µM) | relative viability (Etoposide + Lapatinib; first compound 0.01 µM) | relative viability (Etoposide + Lapatinib; first compound 0.03162 µM) | relative viability (Etoposide + Lapatinib; first compound 0.1 µM) | relative viability (Etoposide + Lapatinib; first compound 0.3162 µM) | relative viability (Etoposide + Lapatinib; first compound 1 µM) | relative viability (Bleomycin + Pemetrexed; first compound 0.01 µM) | relative viability (Bleomycin + Pemetrexed; first compound 0.03162 µM) | relative viability (Bleomycin + Pemetrexed; first compound 0.1 µM) | relative viability (Bleomycin + Pemetrexed; first compound 0.3162 µM) | relative viability (Bleomycin + Pemetrexed; first compound 1 µM)
1 | SW 1573 | 0.253 | 0.289 | 0.434 | 0.174 | 0.118 | 0.705 | 0.567 | 0.417 | 0.311 | 0.176 | 1.03 | 1.12 | 0.576 | 0.696 | 0.267 | 0.755 | 0.691 | 0.572 | 0.44 | 0.225
2 | RERF-LC-KJ | 0.498 | 0.56 | 0.468 | 0.246 | 0.191 | 0.617 | 0.502 | 0.502 | 0.233 | 0.22 | 0.882 | 0.863 | 0.626 | 0.828 | 0.733 | 0.416 | 0.504 | 0.391 | 0.261 | 0.142
3 | EMC-BAC-2 | 0.293 | 0.277 | 0.259 | 0.144 | 0.115 | 0.746 | 0.696 | 0.688 | 0.38 | 0.265 | 0.855 | 0.822 | 0.572 | 0.344 | 0.215 | 0.416 | 0.4 | 0.419 | 0.476 | 0.324
4 | LK-2 | 0.209 | 0.193 | 0.248 | 0.176 | 0.169 | 0.418 | 0.373 | 0.318 | 0.198 | 0.255 | 0.949 | 1.23 | 0.566 | 0.555 | 0.217 | 0.243 | 0.252 | 0.204 | 0.146 | 0.133
5 | HCC-44 | – | – | – | – | – | 0.462 | 0.283 | 0.26 | 0.176 | 0.178 | 0.989 | 0.953 | 1.06 | 0.833 | 0.245 | 0.625 | 0.666 | 0.586 | 0.526 | 0.401
6 | NCI-H1299 | – | – | – | – | – | 0.879 | 0.978 | 0.854 | 0.481 | 0.245 | 0.952 | 0.983 | 1.03 | 0.776 | 0.817 | – | – | – | – | –
7 | LCLC-103H | 0.382 | 0.448 | 0.418 | 0.316 | 0.214 | 1.03 | 1.06 | 1.06 | 1.13 | 0.564 | – | – | – | – | – | 0.452 | 0.443 | 0.455 | 0.487 | 0.419
8 | ABC-1 | 0.516 | 0.53 | 0.61 | 0.31 | 0.285 | 0.938 | 0.647 | 0.63 | 0.355 | 0.248 | 1.05 | 1.34 | 1.09 | 1.1 | 0.667 | – | – | – | – | –
9 | NCI-H1650 | 0.263 | 0.281 | 0.145 | 0.124 | 0.128 | – | – | – | – | – | 0.696 | 0.781 | 0.479 | 0.217 | 0.144 | 0.358 | 0.214 | 0.189 | 0.15 | 0.128
10 | ChaGo-K-1 | 0.529 | 0.552 | 0.533 | 0.246 | 0.264 | – | – | – | – | – | – | – | – | – | – | 0.267 | 0.251 | 0.245 | 0.261 | 0.24
11 | NCI-H1648 | – | – | – | – | – | – | – | – | – | – | – | – | – | – | – | 0.669 | 0.614 | 0.508 | 0.483 | 0.469
12 | NCI-H727 | 0.466 | 0.345 | 0.325 | – | 0.293 | 0.293 | 0.251 | 0.33 | 0.183 | 0.34 | 0.844 | 0.937 | 0.511 | 0.665 | 0.589 | – | – | – | – | –
13 | A549 | – | – | – | – | – | 0.514 | 0.472 | 0.384 | 0.0789 | 0.0779 | 0.957 | 0.811 | 0.537 | 0.244 | 0.111 | – | – | – | – | –
14 | NCI-H522 | 0.791 | 0.716 | 0.518 | 0.43 | 0.328 | – | – | – | – | – | – | – | – | – | – | 0.844 | 0.815 | 0.85 | 0.49 | 0.321
15 | NCI-H441 | 0.424 | 0.709 | 0.515 | 0.296 | 0.311 | – | 0.57 | 0.564 | 0.209 | 0.255 | – | – | – | – | – | 0.248 | 0.251 | 0.267 | 0.217 | 0.244
16 | NCI-H2170 | 0.504 | 0.599 | 0.638 | 0.285 | 0.389 | – | – | – | – | – | 0.294 | 0.264 | – | 0.292 | 0.23 | 0.255 | 0.263 | 0.244 | 0.235 | 0.234
17 | NCI-H1623 | 0.561 | 0.557 | 0.521 | 0.347 | 0.273 | – | – | – | – | – | – | – | – | – | – | – | – | – | – | –
18 | SW 900 | 0.48 | 0.418 | 0.241 | 0.147 | 0.134 | – | – | – | – | – | – | – | – | – | – | 0.469 | 0.461 | 0.391 | 0.2 | 0.191
19 | IA-LM | – | – | – | – | – | 0.588 | 0.476 | 0.344 | 0.293 | 0.246 | 0.704 | 0.614 | 0.78 | 0.666 | 0.301 | – | – | – | – | –
20 | EBC-1 | – | – | – | – | – | 0.829 | 0.72 | 0.78 | 0.698 | 0.366 | 0.2 | 0.245 | – | 0.214 | 0.196 | – | – | – | – | –
